Tests used:
beta amyloid 40 = test: Aβ40/42 ELISA Assay: Aβ40; assay type: cell-based; details: Cricetulus griseus; CHO cells carrying the APP-REP-NL plasmid, 22 hours, sandwich ELISA of medium
Procedure: (§1) Pharmacology: Aβ40/42 ELISA Assay
(§2) Compounds are diluted from DMSO stocks to 2 μM and below in a cell culture medium. Compounds are then applied to CHO cells carrying the APP-REP-NL plasmid [Sudhir et. al, J. Biol. Chem. 267:25602-25608 (1992)] for a period of 22 hours. After the conditioning period, medium is collected, diluted in assay buffer containing protein, and samples, controls, and synthetic peptide standards are incubated on a prepared ELISA plate. Using a sandwich ELISA with antibodies specifically directed against the carboxyl terminus of beta amyloid 40 or 42 [analogous to the method reported by Haugabook et al., J. Neurosci. Methods 108:171-179 (2001) but using goat anti-mouse IgGl (source: Southern Biotech) as the anchor, 6E10 as the capture antibody (Source: SENETEK), rabbit antiαβ40 and antiαβB42 (source: QCB) and APL-donkey anti-rabbit IgG (H+L, source: Southern Biotech) as the detection antibody], the effect of the compound treatment on the cellular production of extracellular beta amyloid is quantified. Cells treated with compound are subsequently incubated in cell culture medium containing […]. After a short incubation period, MTS/medium containing plates are read in a spectrophotometer to determine the extent to which compound toxicity affected the cell's metabolism and ability to synthesize beta amyloid.
(§3) Test Samples: compound samples are supplied as 20 mM stock solutions in a 100% DMSO solution.
(§4) APP-REP-NL cells: Qualified cell lines are carried from week to week using 1:100 dilutions and are cultured in DMEM supplemented with 1× antibiotic/antimycotic, 200 μg/ml of G418 antibiotic, and 10% certified fetal calf serum. Cells are also banked in liquid nitrogen. Periodically, beta amyloid production is assessed, and cells are either kept in culture or replaced with progenitors at full expression.
(§5) Antibodies: Are from certified lots that have already been qualified in this assay. Antibodies are stored in small frozen aliquots at −80° C. that are thawed and used.
(§6) A compound is considered active if it has an EC50 for Aβ 40 reduction of <100 μM and no toxicity at doses in the vicinity the EC50.

beta amyloid 42 = test: Aβ40/42 ELISA Assay: Aβ42; assay type: cell-based; details: Cricetulus griseus; CHO cells carrying the APP-REP-NL plasmid, 22 hours, sandwich ELISA of medium
Procedure: as §1, §2, §3, §4, §5, §6

| Compound | EC50 (beta amyloid 40) [µM] | EC50 (beta amyloid 42) [µM] | melting point [°C] |
| --- | --- | --- | --- |
| C[C@@H]([C@@H](CO)NS(=O)(=O)c1ccc(Cl)c(Cl)c1)C(F)(F)F [Example 46, 3,4-Dichloro-N-[(1S,2S)-3,3,3-trifluoro-1-(hydroxymethyl)-2-methylpropyl]benzenesulfonamide] | 5.07 | 4.84 | – |
| N#Cc1ccc(S(=O)(=O)NC(CO)C(C(F)(F)F)C(F)(F)F)cc1 (centres unmarked) [Example 18, 4-Cyano-N-(3,3,3-trifluoro-1-hydroxymethyl-2-trifluoromethyl-propyl)-benzenesulfonamide] | 90.7 | 101 | – |
| O=S(=O)(NC(CO)C(C(F)(F)F)C(F)(F)F)c1cccc(F)c1 (centres unmarked) [Example 27, 3-fluoro-N-(3,3,3-trifluoro-1-hydroxymethyl-2-trifluoromethyl-propyl)-benzenesulfonamide] | 9.08 | 12.1 | – |
| O=[N+]([O-])c1ccc(S(=O)(=O)NC(CO)C(C(F)(F)F)C(F)(F)F)cc1 (centres unmarked) [Example 19, 4-nitro-N-(3,3,3-trifluoro-1-hydroxymethyl-2-trifluoromethyl-propyl)-benzenesulfonamide] | 27.8 | 26.8 | – |
| O=S(=O)(NC(CO)C(C(F)(F)F)C(F)(F)F)c1ccc(C(F)(F)F)cc1 (centres unmarked) [Example 17, N-[3,3,3-trifluoro-1-(hydroxymethyl)-2-(trifluoromethyl)propyl]-4-(trifluoromethyl)benzenesulfonamide] | 2.29 | 1.94 | – |
| O=S(=O)(NC(CO)C(C(F)(F)F)C(F)(F)F)c1cc(F)cc(F)c1 (centres unmarked) [Example 22, 3,5-Difluoro-N-(3,3,3-trifluoro-1-hydroxymethyl-2-trifluoromethyl-propyl)-benzenesulfonamide] | 5.72 | 6.34 | – |
| CC(C)c1ccc(S(=O)(=O)NC(CO)C(C(F)(F)F)C(F)(F)F)cc1 (centres unmarked) [Example 10, 4-isopropyl-N-[3,3,3-trifluoro-1-(hydroxymethyl)-2-(trifluoromethyl)propyl]benzenesulfonamide] | 17.7 | 44.1 | – |
| O=S(=O)(NC(CO)C(C(F)(F)F)C(F)(F)F)c1ccc(F)cc1F (centres unmarked) [Example 35, 2,4-difluoro-N-(3,3,3-trifluoro-1-hydroxymethyl-2-trifluoromethyl-propyl)-benzenesulfonamide] | 9.77 | 11.2 | – |
| Cc1cccc(S(=O)(=O)NC(CO)C(C(F)(F)F)C(F)(F)F)c1 (centres unmarked) [Example 15, 3-methyl-N-[3,3,3-trifluoro-1-(hydroxymethyl)-2-(trifluoromethyl)propyl]benzenesulfonamide] | 15.1 | 14.5 | – |
| O=S(=O)(NC(CO)C(C(F)(F)F)C(F)(F)F)c1cccc(Cl)c1 (centres unmarked) [Example 29, 3-chloro-N-(3,3,3-trifluoro-1-hydroxymethyl-2-trifluoromethyl-propyl)-benzenesulfonamide] | 24.2 | 37.2 | – |
| O=S(=O)(NC(CO)C(C(F)(F)F)C(F)(F)F)c1ccc(F)c(F)c1 (centres unmarked) [Example 34, 3,4-difluoro-N-(3,3,3-trifluoro-1-hydroxymethyl-2-trifluoromethyl-propyl)-benzenesulfonamide] | 2.22 | 2.4 | – |
| COc1cc(S(=O)(=O)NC(CO)C(C(F)(F)F)C(F)(F)F)ccc1Cl (centres unmarked) [Example 3, 4-Chloro-3-methoxy-N-(3,3,3-trifluoro-1-hydroxymethyl-2-trifluoromethyl-propyl)-benzenesulfonamide] | 9.94 | 13.8 | – |

These reach a lower EC50 (beta amyloid 40). Values come first.

| EC50 (beta amyloid 40) [µM] | EC50 (beta amyloid 42) [µM] | melting point [°C] | Compound |
| --- | --- | --- | --- |
| 0.423 | 0.384 | – | C[C@@H]([C@@H](CO)NS(=O)(=O)c1ccc(Cl)cc1)C(F)(F)F [Example 43, 4-Chloro-N-[(1S,2S)-3,3,3-trifluoro-1-(hydroxymethyl)-2-methylpropyl]benzenesulfonamide] |
| 1.5 | 1.26 | – | Cc1ccc(S(=O)(=O)NC(CO)C(C(F)(F)F)C(F)(F)F)cc1 (centres unmarked) [Example 14, 4-methyl-N-[3,3,3-trifluoro-1-(hydroxymethyl)-2-(trifluoromethyl)propyl]benzenesulfonamide] |
| 0.334 | 0.204 | 186 to 187 | O=S(=O)(N[C@H](CO)C(CC(F)(F)F)CC(F)(F)F)c1ccc(Cl)cc1 [Example 2, 4-Chloro-N-[(1S)-4,4,4-trifluoro-1-hydroxymethyl-2-(2,2,2-trifluoro-ethyl)-butyl]-benzenesulfonamide] |
| 0.22 | 0.177 | – | O=S(=O)(N[C@H](CO)C(C(F)(F)F)C(F)(F)F)c1ccc(Cl)cc1 [Example 1, 4-Chloro-N-[(1S)-3,3,3-trifluoro-1-(hydroxymethyl)-2-(trifluoromethyl)propyl]benzenesulfonamide] |
| 0.651 | 0.563 | – | C[C@@H]([C@@H](CO)NS(=O)(=O)c1ccc(F)cc1)C(F)(F)F [Example 48, 4-Fluoro-N-[(1S,2S)-3,3,3-trifluoro-1-(hydroxymethyl)-2-methylpropyl]benzenesulfonamide] |
